Measured values reported in the Kinase Knowledgebase extract (Sharma et al. 2016).
Several values for one entry are separate records, joined by “and”; a condition that tells them apart may be missing. Identical values can stand only once.

Target: CDK2 (human) (UniProt P24941)
Experiment: Enzyme Assay
Conditions: not given

IC50	SMILES
3000 nM and 1000 nM	CC(C)n1cnc2c(NCc3ccc(-c4ccccc4)cc3)nc(NC[C@H](C)NC(=O)OC(C)(C)C)nc21
100 nM	CCn1cnc2c(NCc3ccc(Cl)cc3)nc(N[C@H]3CCCC[C@H]3N)nc21

Target: CDK2;CDK1 (human) (UniProt P24941)
Experiment: Cell-Based Assay
Conditions: hela-s3

SMILES	GI50
CC(C)n1cnc2c(NCc3ccc(-c4ccccc4)cc3)nc(N3CCC(C(N)=O)CC3)nc21	5000 nM and 3000 nM
COC(=O)N[C@H]1CC[C@H](Nc2nc(NCc3ccc(-c4ccccc4)cc3)c3ncn(C(C)C)c3n2)CC1	700 nM and 400 nM and 300 nM
CC(C)n1cnc2c(NCc3ccc(-c4ccccc4)cc3)nc(N[C@H]3CC[C@H](N(CC4CC4)CC4CC4)CC3)nc21	30 nM
CC(C)n1cnc2c(NCc3ccc(-c4ccccc4)cc3)nc(N3CCC(N)C3)nc21 (stereo unspecified)	500 nM
COc1cccc(-c2ccc(CNc3nc(N[C@H]4CC[C@H](NC(C)=O)CC4)nc4c3ncn4C(C)C)cc2)c1	300 nM and 400 nM
CCCCN[C@H]1CC[C@H](Nc2nc(NCc3ccc(-c4ccccc4)cc3)c3ncn(C(C)C)c3n2)CC1	500 nM and 300 nM
CC(=O)N[C@H]1CC[C@H](Nc2nc(NCc3ccc(-c4cccc(C)c4)cc3)c3ncn(C(C)C)c3n2)CC1	400 nM and 200 nM
CC(C)n1cnc2c(NCc3ccc(-c4ccccc4)cc3)nc(N[C@H]3CC[C@H](NCC4CC4)CC3)nc21	300 nM
CC(C)n1cnc2c(NCCc3ccc(-c4ccsc4)cc3)nc(N[C@H]3CC[C@H](NC(=O)OC(C)(C)C)CC3)nc21	> 10000 nM and 7000 nM
CC(C)n1cnc2c(NCc3ccc(-c4ccccc4)cc3)nc(NC[C@H](C)NC(=O)OC(C)(C)C)nc21	300 nM and 100 nM
CC(=O)NCCNc1nc(NCc2ccc(-c3ccccc3)cc2)c2ncn(C(C)C)c2n1	3000 nM and 4000 nM
CC(C)n1cnc2c(NCc3ccc(-c4ccccc4)cc3)nc(N[C@H]3CC[C@H](NC(=O)C4CC4)CC3)nc21	300 nM
CCN[C@H]1CC[C@H](Nc2nc(NCc3ccc(-c4ccccc4)cc3)c3ncn(C(C)C)c3n2)CC1	2000 nM and 900 nM
CC(C)n1cnc2c(NCc3ccc(-c4ccccc4)cc3)nc(N[C@H]3CC[C@H](N4C(=O)CCC4=O)CC3)nc21	300 nM and 200 nM and 500 nM
CC(C)n1cnc2c(NCc3ccc(-c4ccccc4)cc3)nc(N[C@H]3CC[C@H](NS(=O)(=O)C(F)(F)F)CC3)nc21	3000 nM and 2000 nM and 4000 nM
CC(C)n1cnc2c(NCc3ccc(-c4ccccc4)cc3)nc(NCCCN)nc21	300 nM and 600 nM
CCN(C(C)=O)[C@H]1CC[C@H](Nc2nc(NCc3ccc(-c4ccccc4)cc3)c3ncn(C(C)C)c3n2)CC1	600 nM and 800 nM
CC(C)n1cnc2c(NCc3ccc(-c4ccccc4)cc3)nc(NCCN)nc21	200 nM and 400 nM
CC(C)n1cnc2c(NCc3ccc(-c4ccccc4)cc3)nc(N[C@H]3CC[C@H](NS(C)(=O)=O)CC3)nc21	200 nM and 100 nM
CCn1cnc2c(NCc3ccc(Cl)cc3)nc(N[C@H]3CCCC[C@H]3N)nc21	3000 nM
CCC(=O)N[C@H]1CC[C@H](Nc2nc(NCc3ccc(-c4ccccc4)cc3)c3ncn(C(C)C)c3n2)CC1	200 nM and 400 nM and 300 nM

Target: CDK2 (human) (UniProt P24941)
Experiment: Enzyme Assay
Conditions: not given
Remark: another data set of the same source

IC50	SMILES
4000 nM and 11000 nM	CC(C)n1cnc2c(NCc3ccc(-c4ccccc4)cc3)nc(NC[C@H](C)NC(=O)OC(C)(C)C)nc21
200 nM and 60 nM	CN1CC[C@@H](c2c(O)cc(O)c3c(=O)cc(C4CCCCC4Cl)oc23)[C@@H](O)C1 (stereo partly specified)
1000 nM	CCn1cnc2c(NCc3ccc(Cl)cc3)nc(N[C@H]3CCCC[C@H]3N)nc21
